{"source": "paper PMC10455244", "about": "“Alpha-Mangostin: A Potent Inhibitor of TRPV3 and Pro-Inflammatory Cytokine Secretion in Keratinocytes” (International Journal of Molecular Sciences, 2023)", "molecular_target": "T1, TRPV3 (Homo sapiens, UniProt Q8NET8)", "T1 sequence (Q8NET8 1-790)": "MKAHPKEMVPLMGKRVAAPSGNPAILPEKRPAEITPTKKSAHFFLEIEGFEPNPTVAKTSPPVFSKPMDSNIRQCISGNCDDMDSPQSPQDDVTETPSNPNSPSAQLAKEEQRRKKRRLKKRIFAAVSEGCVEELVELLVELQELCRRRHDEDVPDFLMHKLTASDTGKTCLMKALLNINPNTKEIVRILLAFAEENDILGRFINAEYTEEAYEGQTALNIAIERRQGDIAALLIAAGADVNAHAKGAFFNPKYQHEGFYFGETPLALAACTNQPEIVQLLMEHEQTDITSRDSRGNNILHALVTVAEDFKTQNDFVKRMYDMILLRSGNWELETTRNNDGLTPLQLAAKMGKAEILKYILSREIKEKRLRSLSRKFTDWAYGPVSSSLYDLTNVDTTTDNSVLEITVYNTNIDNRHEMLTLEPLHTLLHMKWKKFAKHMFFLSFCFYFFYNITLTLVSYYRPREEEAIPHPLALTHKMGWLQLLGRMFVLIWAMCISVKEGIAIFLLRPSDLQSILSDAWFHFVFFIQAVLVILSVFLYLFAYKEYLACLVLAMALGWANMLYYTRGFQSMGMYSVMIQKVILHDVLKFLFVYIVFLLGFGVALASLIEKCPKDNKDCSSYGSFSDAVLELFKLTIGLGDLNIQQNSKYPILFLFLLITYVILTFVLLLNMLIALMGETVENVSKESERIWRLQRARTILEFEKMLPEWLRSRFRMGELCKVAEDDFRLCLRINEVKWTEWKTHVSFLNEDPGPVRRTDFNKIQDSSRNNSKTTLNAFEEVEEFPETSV", "assay": "Fura-2 calcium imaging, carvacrol-induced Ca2+ increase in NHEK", "type": "cell-based", "set-up": "host or cells: NHEK", "conditions": "300 µM carvacrol, keratinocytes (NHEK), control 0.029 ± 0.003", "protocol": "Since the TRPV3-mediated calcium influx is reported to contribute to proper skin function, we investigated whether alpha-mangostin inhibits the intracellular calcium increase induced by carvacrol in hTRPV3-overexpressing HEK 293T cells and keratinocytes. […] In hTRPV3-overexpressing HEK 293T cells, ∆(F340/F380) decreased by approximately 25% and 70% upon exposure to 0.3 µM and 3 µM alpha-mangostin, respectively (Figure 3A, 0.424 ± 0.032 vs. 0.316 ± 0.030 and 0.144 ± 0.006, respectively).\nFigure 3 Alpha-mangostin (α-MG) inhibited TRPV3-mediated intracellular calcium increase. Cells were perfused with solutions containing 0.3 µM, 3 µM alpha-mangostin or 10 µM 74a before the addition of 300 µM carvacrol (red, green, and blue lines, respectively). […]\nFura-2 AM (Thermo Fisher Scientific) was utilized as a fluorescent indicator to measure calcium signal, as described previously. […] To measure the cytosolic Ca^2+ level, a sequential excitation of Fura-2 is performed at 340 nm and 380 nm; then, the emission signals resulting from each excitation wavelength are measured and the ratio of these signals is calculated. […] Samples were excited using a wavelength of 380 nm for 20 ms, followed by 340 nm for 100 ms, and fluorescence at 510 nm was recorded. Recorded data were then analyzed using NIS-Element AR Version 5.00.00 (Nikon Instruments, Melville, NY, USA). […]"}
{"smiles": "COc1c(O)cc2oc3cc(O)c(CC=C(C)C)c(O)c3c(=O)c2c1CC=C(C)C", "note": "[Alpha-mangostin]", "values": [{"measurement": "Change in F340/F380", "setting": "0.3 µM", "result": "0.019 ± 0.002"}, {"measurement": "Change in F340/F380", "setting": "3 µM", "result": "0.010 ± 0.002"}]}
